Assay results as given in US12220390B2, “Mirdametinib treatment” (SpringWorks Therapeutics, Inc., priority 2022, dated 2025).

System: patients ≥2 and <25 years with brain cancer
Experiment: Phase I/II trial of single agent mirdametinib in children, adolescents and young adults with brain cancer
Format: in vivo, human
Protocol: A multi-arm phase I/II trial of mirdametinib is to be conducted in patients ≥2 and <25 years with brain cancer. Phase I requires participants have no prior exposure to MEK inhibitors and recurrent/progressive disease with biopsy-proven evidence of MAPK pathway activation. Three escalating dose levels (2 mg/m^2/dose BID, 2.5 mg/m^2/dose BID and 3 mg/m^2/dose BID) are planned using a rolling 6 design. The median age enrolled in the study is 10 years old (3-21).

[1] = patients with brain cancer, 2-3 mg/m^2/dose BID

Structure (SMILES): O=C(NOC[C@H](O)CO)c1ccc(F)c(F)c1Nc1ccc(I)cc1F (single isomer, unassigned) [mirdametinib]
- dose-limiting toxicities (all three dose levels (2, 2.5 and 3 mg/m^2/dose BID), continuous dosing, patients with brain cancer): No dose-limiting toxicities
- tolerability (dosed continuously in patients with brain cancer): well-tolerated
- MEK related retinopathy or cardiopathy [1]: No MEK related retinopathy or cardiopathy is observed
- disease progressions [1]: No disease progressions
